Data on six compounds can be found in patent US11299447B2, “Method for isolating a carboxylic acid from an aqueous solution” (PURAC BIOCHEM BV, priority 2011, dated 2022).

Holding throughout (assay type): physicochemical
Data set [1] can be described thus: Solvent solubility in aqueous MgCl2 solution (gas chromatography of aqueous phase). Here is the method:
Hereafter, the stirring was stopped, the phases were allowed to separate and a sample was taken from the aqueous bottom phase. The concentration of solvent in this sample was determined by gas chromatography.

Data set [2] is described as follows: Stability of extraction solvent in contact with 2-hydroxy butyric acid feed solution (gas chromatography). Particulars: 60° C. As for the experimental part:
This experiment was conducted to compare the stability of two solvents, MIBK and Isoamyl alcohol in contact with the 2-hydroxy butyric acid feed solution prepared by adding 340 g of crystalline hydroxy butyric acid to 720 g water and mixing to complete dissolution. The thus prepared feed solution comprised 32 wt % of hydroxy butyric acid.
For each solvent a closed glass reactor was filled with 20 g of solvent and 20 g of the hydroxy butyric acid feed solution, put in an oven to maintain a temperature of 60° C. and shaken continuously. After 3 hours, 24 hours (1 day) and 168 hours (1 week) the shaking was stopped for 1 hour to allow the phases to settle, a sample was taken from the solvent top layer, and the composition of the solvent top layer analyzed by gas chromatography.

The nature of data set [3]: Extraction of different types of polycarboxylic acids. Particulars: for DBE: distribution ratio in back extraction; for DFE: distribution ratio in forward extraction, feed 15 wt. % MgCl2. An excerpt: These tables also give the concentration ratio, which is the ratio between the acid concentration in the product and the acid concentration in the feed.
Data set [4] can be described thus: Lactic acid distribution ratio MIBK/aqueous MgCl2 solution. Particulars: initial lactic acid 20 wt %. An excerpt: Forward extraction and back extraction as used in the method of the invention are based on the difference in solubility of the carboxylic acid in water and the organic solvent at different temperatures. The solubility of a compound in one solvent relative to another solvent can be expressed in terms of the distribution ratio (DR). This ratio gives an indication how a compound will be distributed over the aqueous phase (e.g. the aqueous mixture) and the organic phase (e.g. the organic liquid) in a two-phase system at equilibrium. The distribution ratio may be defined as the ratio of the carboxylic acid concentration dissolved in the organic phase ([carboxylic acid]organic) over the concentration of the carboxylic acid dissolved in water ([carboxylic acid]water), provided that the two phases are in equilibrium with each other: DR=[carboxylic acid]organic/[carboxylic acid]water (1)
The resulting two phase system was stirred at 20° C. or 60° C. for 30 minutes with sufficient speed to ensure that both phases are well dispersed. Hereafter, the stirring is stopped, the phases were allowed to separate and samples were taken from both phases. The concentration of lactic acid (wt %) in these samples was determined by potentiometric titration. Hereafter the distribution ratio was calculated as the ratio of the lactic acid concentration (wt %) in the MIBK organic solvent phase divided by the lactic acid concentration (wt %) in the aqueous phase.

Where [5] appears, read: Table 2.2, MgCl2 0 wt %, 20° C.
The mark [6] stands for this setting: Table 2.2, MgCl2 15 wt %, 20° C.
Where [7] appears, read: Table 2.2, MgCl2 30 wt %, 20° C.

Consider `CC(C)OC(C)C` [Diisopropyl ether, reference compound], for which the results for the Solvent solubility in data set [1] (setting [5]), in data set [1] (setting [6]) and in data set [1] (setting [7]) were 1.0 wt %, 0.4 wt % and 0.7 wt %, respectively.
In the case of `CC(=O)CC(C)C` [MIBK, methyl-isobutylketone], in data set [2] (20 g solvent + 20 g 32 wt % hydroxy butyric acid feed, after 168 hours), the “changes in the purity of the solvent” value is “no changes in the purity of the MIBK could be detected”. Besides, the MIBK solubility in data set [1] (MgCl2 0 wt %, 20° C.) is 1.8 wt %; in data set [1] (MgCl2 0 wt %, 60° C.), 1.4 wt %; in data set [1] (MgCl2 15 wt %, 20° C.) it was 0.48 wt %; in data set [1] (MgCl2 15 wt %, 60° C.), 0.20 wt %; in data set [1] (MgCl2 30 wt %, 20° C.), 0.17 wt %; in data set [1] (MgCl2 30 wt %, 60° C.), 0.11 wt %. The Solvent solubility was determined as 1.8 wt % in data set [1] (setting [5]), 0.5 wt % in data set [1] (setting [6]) and 0.1 wt % in data set [1] (setting [7]).
On to `CC(C)CCO` [Isoamyl alcohol, reference compound], for which the “isoamylhydroxybutyrate formed in solvent layer” value in data set [2] (20 g solvent + 20 g 32 wt % hydroxy butyric acid feed, after 3 hours) was found to be 14.3 area %. Further, the “isoamylhydroxybutyrate concentration in solvent layer” value in data set [2] (after 24 hours) and in data set [2] (after 168 hours) was 21.5 area % each time. Also, the Solvent solubility in data set [1] (setting [5]) was 2.8 wt %; in data set [1] (setting [6]), 1.5 wt %; in data set [1] (setting [7]) it was 0.6 wt %.
On to `O=C(O)/C=C/C(=O)O` [Fumaric acid, fumaric acid], for which, in data set [3], the DFE/DBE is listed as 7.29, the DBE is recorded as 0.24 and the DFE amounted to 1.75.
For `CC(O)C(=O)O` (stereo not shown) [lactic acid], the “Lactic acid distribution ratio” value in data set [4] (MgCl2 0 wt %, 20° C.) amounted to 0.16 wt %/wt %; in data set [4] (MgCl2 0 wt %, 60° C.) it was 0.19 wt %/wt %; in data set [4] (MgCl2 10.5 wt %, 20° C.), 0.33 wt %/wt %; in data set [4] (MgCl2 10.5 wt %, 60° C.), 0.37 wt %/wt %; in data set [4] (MgCl2 16.0 wt %, 20° C.) it was 0.49 wt %/wt %; in data set [4] (MgCl2 16.0 wt %, 60° C.), 0.56 wt %/wt %.
With `C=C(CC(=O)O)C(=O)O` [Itaconic acid, itaconic acid], in data set [3], the DFE/DBE was determined as 2.64, the DBE came out at 1.07 and the DFE is 2.83.
